The results in this text go back to US9145414B2, “1,2,4-triazine-6-carboxamide derivative” (TAIHO PHARMACEUTICAL CO., LTD., priority 2011, dated 2015).

Each structure is given as a SMILES string. A value given as a limit tells only on which side of the number the result lay.

One test concerns the target human Syk protein (Homo sapiens (Human), UniProt P43405). The experiment in a line: Syk kinase inhibition test. Type of test: biochemical. Conditions: Table 95; read-out: SYK inhibitory activity IC50. The method, then: Finally, phosphorylated peptides and non-phosphorylated peptides were separated therebetween using LabChip™ 3000 system (Caliper Life Sciences, Inc., excitation wavelength: 488 nm, detection wavelength: 530 nm). Their respective amounts were measured, and the rate of phosphorylation reaction was then determined from the ratio between the amounts. The concentration at which the compound can inhibit 50% phosphorylation reaction is defined as an IC50 value (μM).
Also, known 1,2,4-triazine-6-carboxamide derivatives A, B, and C (WO2000/075113 (A: compound No. 121 and B: compound No. 154) and WO2000/076980 (C: compound No. 39)) were synthesized as control compounds. Their IC50 values (μM) were calculated in the same way as above and then compared with that of the compound of the present invention.
For the molecule `NC(=O)c1ccc(NC2CCCCC2N)cc1Nc1ccccc1Br` (centres unmarked) [A, reference compound], the IC50 is 33 nM. For `NC(=O)c1ccc(NC2CCCCC2N)cc1Nc1cccc2c1OCO2` (centres unmarked) [B, reference compound], the IC50 is 6.8 nM. With `Cc1cccc(Nc2cc(NCCN(C)C)ccc2C(N)=O)c1` [C, reference compound], the half-maximal inhibitory concentration (IC50) came to 620 nM. Still for that read-out and setting: the value for `NC(=O)c1nnc(N[C@@H]2CCCC[C@@H]2N)nc1Nc1ccc2ncccc2c1` [Example 1, 3-((1R,2S)-2-aminocyclohexylamino)-5-(quinolin-6-ylamino)-1,2,4-triazine-6-carboxamide] was 0.4 nM. The same measure, in the same setting: the value for `NC(=O)c1nnc(N[C@@H]2CCCC[C@@H]2N)nc1Nc1cccc2sccc12` [Example 2, 3-((1R,2S)-2-aminocyclohexylamino)-5-(benzo[b]thiophen-4-ylamino)-1,2,4-triazine-6-carboxamide] was 0.46 nM; that for `Cn1ccc2c(Nc3nc(N[C@@H]4CCCC[C@@H]4N)nnc3C(N)=O)cccc21` [Example 3, 3-((1R,2S)-2-aminocyclohexylamino)-5-(1-methyl-H-indol-4-ylamino)-1,2,4-triazine-6-carboxamide] was 0.36 nM; that for `[2H]C([2H])([2H])C([2H])([2H])n1ncc2cc(Nc3nc(N[C@@H]4CCCC[C@@H]4N)nnc3C(N)=O)ccc21` [Example 5, 3-((1R,2S)-2-aminocyclohexylamino)-5-(1-(ethyl-d5)-1H-indazol-5-ylamino)-1,2,4-triazine-6-carboxamide] was 0.52 nM. Take `[2H]C([2H])([2H])C([2H])([2H])n1ncc2cc(Nc3nc(N[C@H]4CCCNC4)nnc3C(N)=O)ccc21` [Example 7, (S)-5-(1-(ethyl-d5)-1H-indazol-5-ylamino)-3-(piperidin-3-ylamino)-1,2,4-triazine-6-carboxamide diformate]: the IC50 stood at 0.92 nM. Turning to `NC(=O)c1nnc(N[C@@H]2CCCC[C@@H]2N)nc1Nc1ccc2nn(C3CCC3)cc2c1` [Example 11, 3-((1R,2S)-2-aminocyclohexylamino)-5-(2-cyclobutyl-2H-indazol-5-ylamino)-1,2,4-triazine-6-carboxamide], the IC50 turned out to be 0.47 nM. For `Cn1cc(-c2cc(Nc3nc(N[C@@H]4CCCC[C@@H]4N)nnc3C(N)=O)c3cnn(C)c3c2)cn1` [Example 13, 3-((1R,2S)-2-aminocyclohexylamino)-5-(1-methyl-6-(1-methyl-1H-pyrazol-4-yl)-1H-indazol-4-ylamino)-1,2,4-triazine-6-carboxamide], the IC50 was found to be 0.49 nM. As for `NC(=O)c1nnc(N[C@@H]2CCCC[C@@H]2N)nc1Nc1cncc(C2CC2)c1` [Example 16, 3-((1R,2S)-2-aminocyclohexylamino)-5-(5-cyclopropylpyridin-3-ylamino)-1,2,4-triazine-6-carboxamide], the IC50 was 0.94 nM.

As to `Cc1cc2c(Nc3nc(N[C@@H]4CCCC[C@@H]4N)nnc3C(N)=O)cccc2n1C1CC1` [Example 33, 3-((1R,2S)-2-aminocyclohexylamino)-5-(1-cyclopropyl-2-methyl-H-indol-4-ylamino)-1,2,4-triazine-6-carboxamide], the IC50 was 0.71 nM. For `COc1ccc2sc(Nc3nc(N[C@@H]4CCCC[C@@H]4N)nnc3C(N)=O)c(C)c2c1` [Example 48, 3-((1R,2S)-2-aminocyclohexylamino)-5-(5-methoxy-3-methylbenzo[b]thiophen-2-ylamino)-1,2,4-triazine-6-carboxamide], the IC50 was determined as 0.27 nM. For `CCn1nc(C)c2ccc(Nc3nc(N[C@@H]4CCCC[C@@H]4N)nnc3C(N)=O)cc21` [Example 50, 3-((1R,2S)-2-aminocyclohexylamino)-5-(1-ethyl-3-methyl-1H-indazol-6-ylamino)-1,2,4-triazine-6-carboxamide], the IC50 was found to be 0.42 nM.

Turning to `CCn1nc(C)c2cc(Nc3nc(N[C@@H]4CCCC[C@@H]4N)nnc3C(N)=O)ccc21` [Example 56, 3-((1R,2S)-2-aminocyclohexylamino)-5-(1-ethyl-3-methyl-1H-indazol-5-ylamino)-1,2,4-triazine-6-carboxamide], the IC50 worked out at 0.5 nM.

Turning to `Cc1cc(Nc2nc(N[C@@H]3CCCC[C@@H]3N)nnc2C(N)=O)cc2cn(C(F)F)nc12` [Example 62, 3-(((1R,2S)-2-aminocyclohexyl)amino)-5-((2-(difluoromethyl)-7-methyl-2H-indazol-5-yl)amino)-1,2,4-triazine-6-carboxamide], the IC50 is 0.37 nM. With `CC(C)(C)n1cc2cc(Nc3nc(N[C@@H]4CCCC[C@@H]4N)nnc3C(N)=O)cc(-n3cccn3)c2n1` [Example 66, 3-(((1R,2S)-2-aminocyclohexyl)amino)-5-((2-(tert-butyl)-7-(1H-pyrazol-1-yl)-2H-indazol-5-yl)amino)-1,2,4-triazine-6-carboxamide], the IC50 was 0.61 nM. Regarding `NC(=O)c1nnc(N[C@@H]2CCCC[C@@H]2N)nc1Nc1cc(-c2ncccn2)cs1` [Example 76, 3-(((1R,2S)-2-aminocyclohexyl)amino)-5-((4-(pyrimidin-2-yl)thiophen-2-yl)amino)-1,2,4-triazine-6-carboxamide], the IC50 stood at 0.55 nM. Consider `Cc1cc(Nc2nc(N[C@@H]3CCOC[C@@H]3N)nnc2C(N)=O)cc2cn(C(C)(C)CO)nc12` [Example 99, 3-(((3R,4R)-3-aminotetrahydro-2H-pyran-4-yl)amino)-5-((2-(1-hydroxy-2-methylpropan-2-yl)-7-methyl-2H-indazol-5-yl)amino)-1,2,4-triazine-6-carboxamide], for which the IC50 turned out to be 0.63 nM. `CC(C)(C)n1cc2cc(Nc3nc(N[C@@H]4CCOC[C@@H]4N)nnc3C(N)=O)cc(Cl)c2n1` [Example 100, 3-(((3R,4R)-3-aminotetrahydro-2H-pyran-4-yl)amino)-5-((2-(tert-butyl)-7-chloro-2H-indazol-5-yl)amino)-1,2,4-triazine-6-carboxamide]: the IC50 is 0.41 nM. Consider `Cn1ccc(-n2ccc3c(Nc4nc(NCC5(N)CCC5)nnc4C(N)=O)cccc32)n1` [Example 106, 3-(((1-aminocyclobutyl)methyl)amino)-5-((1-(1-methyl-1H-pyrazol-3-yl)-1H-indol-4-yl)amino)-1,2,4-triazine-6-carboxamide], for which the IC50 turned out to be 0.85 nM. In the case of `CCn1ncc2c(Nc3nc(N[C@@H]4CCCC[C@@H]4N)nnc3C(N)=O)cccc21` [Example 107, 3-(((1R,2S)-2-aminocyclohexyl)amino)-5-((1-ethyl-1H-indazol-4-yl)amino)-1,2,4-triazine-6-carboxamide], the IC50 is 0.61 nM. Take `N#Cc1cc(Nc2nc(N[C@@H]3CCCC[C@@H]3N)nnc2C(N)=O)c2ccsc2c1` [Example 208]: the IC50 turned out to be 0.4 nM.

Take `NC(=O)c1nnc(N[C@@H]2CCCC[C@@H]2N)nc1Nc1cccc2nn(C(F)F)cc12` [Example 209]: the IC50 was determined as 0.33 nM.

Regarding `CCOC[C@H](N)[C@@H](C)Nc1nnc(C(N)=O)c(Nc2cc(C)c3ncccc3c2)n1` [Example 282], the IC50 stood at 0.48 nM.

As for `COC[C@H](N)[C@@H](C)Nc1nnc(C(N)=O)c(Nc2cc(C)c3c(cnn3C(C)C)c2)n1` [Example 284], the half-inhibitory concentration (IC50) is 0.34 nM. As for `CCn1ncc2c(C)cc(Nc3nc(N[C@@H]4CCOC[C@@H]4N)nnc3C(N)=O)cc21` [Example 310], the IC50 was determined as 0.59 nM. Regarding `CCn1ncc2cc(Nc3nc(N[C@H](C)[C@@H](N)COC)nnc3C(N)=O)cc(C)c21` [Example 311, 3-(((2R,3R)-3-amino-4-methoxybutan-2-yl)amino)-5-((1-ethyl-7-methyl-1H-indazol-5-yl)amino)-1,2,4-triazine-6-carboxamide], the IC50 was found to be 0.55 nM. With `CCn1cc2ccc(Nc3nc(N[C@@H]4CCCCC[C@@H]4N)nnc3C(N)=O)cc2n1` [Example 316, 3-(((1R,2S)-2-aminocycloheptyl)amino)-5-((2-ethyl-2H-indazol-6-yl)amino)-1,2,4-triazine-6-carboxamide], the IC50 worked out at 0.31 nM.

A further test deals with SU-DHL-6 cells (diffuse large-cell lymphoma cell line). Put plainly: Cell growth inhibition test. The test is classed as cell-based. Conditions: Homo sapiens, 72 h; SU-DHL-6 cells, 3 days culture, Table 96; read-out: Cell growth inhibition IC50. Here is the method:
The compound of the present invention was serially diluted with dimethyl sulfoxide and then added to an RPMI1640 medium containing 10% FBS. Each resulting solution was added at a concentration of 100 μl/well to the preceding SU-DHL-6 cell culture plate (final concentration of the compound: 10, 3, 1, 0.3, 0.1, 0.03, 0.01, and 0.003 μM). The cells were cultured at 37° C. for 3 days in an incubator containing 5% CO2. The cells thus cultured were left at room temperature for 30 minutes and then centrifuged at 1500 rpm for 3 minutes using a centrifuge (Hitachi Koki Co., Ltd., Himac CF7D2). A 100 μl aliquot of the supernatant was removed from each well to allow 100 μl of the cell culture solution to remain therein. This 100 μl of the remaining cell culture solution was supplemented with an equal amount of CellTiter-Glo Luminescent Cell Viability Assay (Promega KK, Cat#: G7573), and the mixture was then shaken for 1 minute using a plate mixer. The reaction solution was left in the dark for 10 minutes. Then, luminescence intensity derived from live cells of each well was measured using a microplate reader (PerkinElmer Inc., ARVOsx). […] Likewise, the IC50 values (μM) of the control compounds were also calculated and then compared with that of the compound of the present invention. Rate of cell growth inhibition(%)=(C−T)/C×100 T: luminescence intensity (count per second) of a well supplemented with the test compound C: luminescence intensity (count per second) of a well non-supplemented with the test compound
With `Cn1ccc2c(Nc3nc(N[C@@H]4CCCC[C@@H]4N)nnc3C(N)=O)cccc21` [Example 3, 3-((1R,2S)-2-aminocyclohexylamino)-5-(1-methyl-H-indol-4-ylamino)-1,2,4-triazine-6-carboxamide], the IC50 came out at 91 nM. Regarding `CCn1ccc2c(Nc3nc(N[C@@H]4CCCC[C@@H]4N)nnc3C(N)=O)cccc21` [Example 17, 3-((1R,2S)-2-aminocyclohexylamino)-5-(1-ethyl-1H-indol-4-ylamino)-1,2,4-triazine-6-carboxamide], the IC50 was determined as 76 nM.

The test is the same for the next values; noted with them: Homo sapiens, SU-DHL-6, 72 h, read-out: Cell growth inhibition IC50.
Take `[2H]C([2H])([2H])C([2H])([2H])n1ncc2cc(Nc3nc(N[C@H]4CCCNC4)nnc3C(N)=O)ccc21` [Example 7, (S)-5-(1-(ethyl-d5)-1H-indazol-5-ylamino)-3-(piperidin-3-ylamino)-1,2,4-triazine-6-carboxamide diformate]: the IC50 came out at 174 nM.

The same test, now with this note: SU-DHL-6 cells, 3 days culture, Table 96; read-out: Cell growth inhibition IC50.
With `NC(=O)c1ccc(NC2CCCCC2N)cc1Nc1ccccc1Br` (centres unmarked) [A, reference compound], the IC50 came to 2000 nM.

For `NC(=O)c1ccc(NC2CCCCC2N)cc1Nc1cccc2c1OCO2` (centres unmarked) [B, reference compound], the IC50 worked out at 1900 nM. For `Cc1cccc(Nc2cc(NCCN(C)C)ccc2C(N)=O)c1` [C, reference compound], the IC50 is greater than 10000 nM.

Usually IC50 stands for the concentration at which inhibition is half-maximal.
